Patent US7585667B2, “Negative strand RNA virus replicon” (The United States of America as represented by The …, priority 2003, dated 2009)

Tested on: BHK-SR19-T7 cells
Assay: Blasticidin concentration that kills BHK-SR19-T7 cells
Assay type: cell-based, hamster
Conditions: in medium
Procedure: To launch the replicon, MP295 and the four RSV support plasmids necessary for virus replication and gene expression, N, P, L, and M2-1 were transfected into two 35 mm wells of BHK-SR19-T7 cells (FIG. 4). On day 2, green cells were noted and all of the cells from each 35 mm dish were passaged to 100 mm dishes. On the following day (day 3) the medium was replaced with fresh medium containing 1 ug/ml blasticidin, a concentration that we had determined would kill most BHK-SR19-T7 cells. On day 4, approximately 200 single green cells and 15 pairs of the green cells were noted. On day 6, 20 pairs of green cells were noted. Many of the cells lacking the replicon had died by that time, but a few resistant colonies were growing. The cells were passaged into 150 mm tissue culture plates, in the presence of 4 or 8 ug/ml blasticidin in an attempt to eliminate resistant BHK cell clones. The following day, day 9, 40% of the 175 cell groups counted were pairs, the remainder being singles. By day 14, 3 colonies of >20 cells had developed, while many of the individual green cells had remained single or died. By day 19, many “mixed” colonies containing both replicon-containing and parental cells were noted, as well as more colonies with only green cells.

With CN(CC[C@H](N)CC(=O)N[C@H]1C=C[C@H](n2ccc(N)nc2=O)O[C@@H]1C(=O)O)C(=N)N [blasticidin] as the compound, how does the “concentration that would kill most BHK-SR19-T7 cells” value read?
The value was 1000 ng/mL.
